Tests used:
GABA autoreceptor [1] = experiment: antagonist activity at GABA autoreceptors by blockade of agonist (muscimol)-induced inhibition of potassium-evoked [3H]-GABA release from rat cortex slices in vitro (Procedure 1); type: biochemical; conditions: for IC50: inhibition of the effect of a single concentration of muscimol, read-out: IC50 value (GABA autoreceptor antagonism); for Antagonism at GABA autoreceptor pA2 values: Procedure 1, agonist muscimol, rat cerebral cortex slices
From the text: (§1) Advantageously compounds of formula I appear to be selective in that they display little or no activity at GABAA receptors. The following test procedures were used to measure antagonist activity at (a) GABA autoreceptors by blockade of agonist-induced inhibition of potassium-evoked GABA release from rat cortex in vitro (Procedure 1); and (b) GABAA receptors by antagonism of agonist-induced depolarization of the isolated rat vagus nerve (Procedure 2):
Slices (0.25×0.25×2.0 mm) of rat cerebral cortex are prepared using a McIlwain tissue chopper. The slices are incubated in Krebs-Henseleit solution containing [^3 H]-GABA (10^-7 M) in the presence of amino-oxyacetic acid (AOAA) for 20 minutes at 37° C., rinsed with 5ml aliquots of Krebs-Henseleit solution and transferred to 10 superfusion chambers (volume 300μl). The slices are continuously superfused with Krebs-Henseleit solution (0.4 ml min^-1) containing AOAA (10^-5 M) and fractions of the superfusate collected every 4 minutes. Transmitter release is induced by 4 minute exposure to a Krebs-Henseleit solution containing 25 mM potassium ion (with concomitant reduction in sodium to maintain osmolarity) after 68 […] and 92 (S2) minutes of superfusion. The antagonist compound under study is added to the superfusing medium 10 minutes prior to the first potassium stimulation and remains throughout the superfusion. The GABA autoreceptor is activated by adding the agonist muscimol 20 minutes before the second potassium stimulation. The residual radioactivity in the slices at the end of the experiment together with that in the superfusate. fractions is measured by liquid scintillation counting
Calculations: The amount of radioactivity in each fraction is expressed as a percentage of the total radioactivity in the tissue at the start of the respective collection period. The amount of radioactivity released above basal by the increased potassium is calculated and the ratio S2/S1 obtained. The S2/S1 ratio from muscimol-treated slices is expressed as a percentage of the control drug-free S2/S1 ratio. A dose-response curve for the agonist muscimol is constructed and the effect of antagonists is measured by their ability to displace this dose-response curve to the right. From this measurement a pA2 value can be calculated. Alternatively, an IC50 value for antagonists can be calculated by inhibiting the effect of a single concentration of muscimol with increasing concentrations of antagonist.

[2] = known; cited from earlier work
GABAA receptor [3] = conditions: non-selective; cited from earlier work
GABA autoreceptor [4] = conditions: previously shown; cited from earlier work
GABAA receptor [5] = experiment: antagonism at GABAA receptors: antagonism of GABA-induced depolarization of the isolated rat vagus nerve (Procedure 2); type: biochemical
From the text: as §1
Male Sprague-Dawley rats (250-400g) are killed by a blow to the head and cervical dislocation. The cervical vagus nerves are transferred into Krebs' solution at room temperature and the connective tissue sheath removed. The vagus nerves are placed in two-compartment Perspex baths to permit extracellular recording of agonist induced depolarizations. Each nerve projects from one compartment to the next by way of a grease filled slot, the grease serving to insulate the compartments from each other. […] One compartment is continuously perfused (5ml min^-1) with Krebs' solution at 27° C. to which agonist and antagonist drugs are added. […] Non-cumulative concentration-response curves to GABA (10^-6 to 3×10^-4 M) are obtained using a 5 min contact time and 10-20 min wash period and the effect of the test antagonist compound is measured by its ability to shift this concentration-response curve to the right.

| IC50 (GABA autoreceptor [1]) [nM] | Antagonism at GABA autoreceptor pA2 values (GABA autoreceptor [1]) | Compound | also measured |
| --- | --- | --- | --- |
| 20 | – | c1ccc2c(c1)CCN[C@H]2[C@@H]1CCCO1 (single isomer, unassigned) [(-) enantiomer of Compound C] | – |
| – | 8.5 | c1ccc2c(c1)CCN[C@H]2[C@@H]1CCCO1 (relative stereo) [Compound C, 1RS, 2'SR-1-(2-Tetrahydrofuranyl)-1,2,3,4-tetrahydroisoquinoline] | – |
| 260 | – | CN1CCc2ccccc2[C@@H]1[C@@H]1CCCO1 (single isomer, unassigned) [(-) isomer of Compound D, (-) 1R*,2'S*-1-(2-tetrahydrofuranyl)-2-methyl-1,2,3,4-tetrahydroisoquinoline] | – |
| 8600 | – | c1ccc2c(c1)CCN[C@H]2[C@@H]1CCCO1 (single isomer, unassigned) [(+) isomer of Compound C] | – |
| – | 5.2 | COc1cc2c(cc1OC)[C@H]([C@H]1CCCO1)NCC2 (relative stereo) [B, 1RS,2'RS-1-(2-Tetrahydrofuranyl) -1,2,3,4- Tetrahydro-6,7-dimethoxyisoquinoline] | – |
| – | 7.0 | COc1cc2c(cc1OC)[C@H]([C@@H]1CCCO1)NCC2 (relative stereo) [A, 1RS,2'SR-1-(2-Tetrahydrofuranyl)-1,2,3,4-tetrahydro-6,7 dimethoxyisoquinoline] | Antagonism at GABAA receptors (GABAA receptor [5]; at 10^-4 M): inactive |
| 2.7 | – | CN1CCc2ccccc2[C@@H]1[C@@H]1CCCO1 (single isomer, unassigned) [(+) isomer of Compound D, (+)1R*,2'S*-1-(2-tetrahydrofuranyl)-2-methyl-1,2,3,4-tetrahydroisoquinoline] | – |

More lines, now with the values behind:

| Compound | IC50 (GABA autoreceptor [1]) [nM] | Antagonism at GABA autoreceptor pA2 values (GABA autoreceptor [1]) | also measured |
| --- | --- | --- | --- |
| picrotoxin | – | – | convulsant action [2]: known convulsants; activity at GABAA receptor (GABAA receptor [3]): also active at the GABAA receptor; activity at GABA autoreceptor (GABA autoreceptor [4]): antagonists at the GABA autoreceptor |
| Oc1ccc(C2NCCc3cc(O)c(O)cc32)cc1 (stereo not drawn) [Example 12, 1-(4-Hydroxyphenyl)-6,7-dihydroxy-1,2,3,4-tetrahydroisoquinoline] | 480 | – | – |
| CN1CCc2ccccc2[C@@H]1[C@@H]1CCCO1 (relative stereo) [Compound D, 1RS, 2'SR-1-(2-Tetrahydrofuranyl)-2-methyl-1,2,3,4-tetrahydroisoquinoline] | – | 9.2 | Antagonism at GABAA receptors (GABAA receptor [5]; at 10^-5 M): inactive |
| CN1CCc2cc3c(cc2[C@H]1[C@@H]1OC(=O)c2c1ccc1c2OCO1)OCO3 [bicuculline] | – | – | convulsant action [2]: known convulsants; activity at GABAA receptor (GABAA receptor [3]): also active at the GABAA receptor; activity at GABA autoreceptor (GABA autoreceptor [4]): antagonists at the GABA autoreceptor |
| c1csc(C2NCCc3ccccc32)c1 (racemic) [E, 1,2,3,4-Tetrahydro-1-(2-thienyl)isoquinoline] | – | 8.4 | – |
